Laboratory results from patent publication US20180318199A1, “Pharmaceutical Composition Having Anti-Aging Properties against High-Glucose” (TAIWAN LEADER BIOTECH CORP., priority 2017, published 2018).

Tested on: HNDFs (CCD966SK)
Experiment: MTT cytotoxicity of antcins against HNDFs
Type: cell-based, human
Details: for IC50: MTT assay, 72 h, 1, 5, 10 and 20 μM tested, read-out: 50% inhibitory concentration (IC50) against HNDFs; for cytotoxicity to HNDFs (in words): MTT, 72 h, up to 20 μM
Experimental: Please refer to FIG. 2A˜FIG. 2D, which are views showing HG-induced senescence affected by antcins in HNDFs. As shown in the figures, prior to an investigation, cytotoxicity of antcins against HNDFs is determined. In FIG. 2A, type of antcins are subjected to screen for potential anti-aging agents for skin aging. Names and chemical structures of the antcins are shown in the left and center column, respectively. The cytotoxic effects of antcins against HNDFs are investigated. Briefly, HNDFs are incubated with increasing concentrations (1, 5, 10 and 20 μM) of antcins including ANA, ANB, ANC, ANH, ANK and ANM for 72 h and the cell viability is determined by MTT assay. The 50% inhibitory concentrations (IC50) of each compound against HNDFs are shown in right column.
Cell viability is assessed by MTT colorimetric assay. Briefly, HNDFs (2×10^4cells/well) or HUVECs (5×10^4 cells/well) are seeded in a 24-well culture plate. After treatment with HG (15 and 30 mM) in the presence or absence of samples for 24-72 h, culture media is withdrawn and incubated with MTT (1 mg/mL) in fresh medium for 2 h. The MTT formazan crystals are dissolved in 400 μL of DMSO and the samples are measured at 570 nm […] using an ELISA microplate reader (Bio-Tek Instruments, Winooski, Vt.). The percentage of cell viability (%) is calculated as (A570 of treated cells/A570 of untreated cells)×100.

SMILES	IC50 [µM]	cytotoxicity to HNDFs (in words)
C=C(CC[C@@H](C)[C@H]1CC[C@H]2C3=C(C(=O)C[C@]12C)[C@@]1(C)CC[C@@H](O)[C@](C)(O)[C@@H]1C[C@@H]3O)C(C)C(=O)O (some centres unmarked) [ANK, antcin K]	2.89	strong cytotoxicity
C=C(CC[C@@H](C)[C@H]1CC[C@H]2C3=C(C(=O)C[C@]12C)[C@@]1(C)CCC(=O)[C@@H](C)[C@@H]1CC3=O)[C@H](C)C(=O)O [ANB, antcin B]	7.11	strong cytotoxicity
C=C(CC[C@@H](C)[C@H]1CC[C@H]2C3=C(C(=O)C[C@]12C)[C@@]1(C)CCC(=O)[C@@H](C)[C@@H]1C[C@@H]3O)[C@H](C)C(=O)O [ANC, antcin C]	–	did not show significant cytotoxicity
